PubChem BioAssay AID1259407 (Chemical Carcinogenesis Research Information System (CCRIS), 2018)
Activity calls are given as the source filed them. No rule for the calls is given here.

System: CCRIS mutagenicity, Ames/micronucleus/aberration tests
Assay: CCRIS mutagenicity studies
[1] = Test System: AMES SALMONELLA TYPHIMURIUM, Strain/Indicator: TA98, Metabolic Activation: NONE, Method: STANDARD PLATE
[2] = Test System: AMES SALMONELLA TYPHIMURIUM, Strain/Indicator: TA100, Metabolic Activation: NONE, Method: STANDARD PLATE

ClCC(Cl)Cl
mutagenic call (Test System: AMES SALMONELLA TYPHIMURIUM, Strain/Indicator: TA97, Metabolic Activation: HAMSTER, LIVER, S-9, AROCLOR 1254 (10%), Method: PREINCUBATION): inactive; negative | mutagenic call (Test System: AMES SALMONELLA TYPHIMURIUM, Strain/Indicator: TA97, Metabolic Activation: HAMSTER, LIVER, S-9, AROCLOR 1254 (30%), Method: PREINCUBATION): inactive; negative | mutagenic call (Test System: AMES SALMONELLA TYPHIMURIUM, Strain/Indicator: TA97, Metabolic Activation: NONE, Method: PREINCUBATION): inactive; negative | mutagenic call (Test System: AMES SALMONELLA TYPHIMURIUM, Strain/Indicator: TA97, Metabolic Activation: NONE, Method: STANDARD PLATE): active; positive | mutagenic call (Test System: AMES SALMONELLA TYPHIMURIUM, Strain/Indicator: TA97, Metabolic Activation: RAT, LIVER, S-9, AROCLOR 1254 (10%), Method: PREINCUBATION): inactive; negative | mutagenic call (Test System: AMES SALMONELLA TYPHIMURIUM, Strain/Indicator: TA97, Metabolic Activation: RAT, LIVER, S-9, AROCLOR 1254 (30%), Method: PREINCUBATION): inactive; negative | mutagenic call (Test System: AMES SALMONELLA TYPHIMURIUM, Strain/Indicator: TA97, Metabolic Activation: RAT, LIVER, S-9, AROCLOR 1254, Method: STANDARD PLATE): active; positive | mutagenic call (Test System: AMES SALMONELLA TYPHIMURIUM, Strain/Indicator: TA98, Metabolic Activation: HAMSTER, LIVER, S-9, AROCLOR 1254 (10%), Method: PREINCUBATION): inactive; negative | mutagenic call (Test System: AMES SALMONELLA TYPHIMURIUM, Strain/Indicator: TA98, Metabolic Activation: HAMSTER, LIVER, S-9, AROCLOR 1254 (30%), Method: PREINCUBATION): inactive; negative | mutagenic call (Test System: AMES SALMONELLA TYPHIMURIUM, Strain/Indicator: TA98, Metabolic Activation: NONE, Method: PREINCUBATION): inactive; negative | mutagenic call [1]: inactive; negative | mutagenic call (Test System: AMES SALMONELLA TYPHIMURIUM, Strain/Indicator: TA98, Metabolic Activation: RAT, LIVER, S-9, AROCLOR 1254 (10%), Method: PREINCUBATION): inactive; negative | mutagenic call (Test System: AMES SALMONELLA TYPHIMURIUM, Strain/Indicator: TA98, Metabolic Activation: RAT, LIVER, S-9, AROCLOR 1254 (30%), Method: PREINCUBATION): inactive; negative | mutagenic call (Test System: AMES SALMONELLA TYPHIMURIUM, Strain/Indicator: TA98, Metabolic Activation: RAT, LIVER, S-9, AROCLOR 1254, Method: STANDARD PLATE): inactive; negative | mutagenic call (Test System: AMES SALMONELLA TYPHIMURIUM, Strain/Indicator: TA100, Metabolic Activation: HAMSTER, LIVER, S-9, AROCLOR 1254 (10%), Method: PREINCUBATION): inactive; negative | mutagenic call (Test System: AMES SALMONELLA TYPHIMURIUM, Strain/Indicator: TA100, Metabolic Activation: HAMSTER, LIVER, S-9, AROCLOR 1254 (30%), Method: PREINCUBATION): inactive; negative | mutagenic call (Test System: AMES SALMONELLA TYPHIMURIUM, Strain/Indicator: TA100, Metabolic Activation: NONE, Method: PREINCUBATION): inactive; negative | mutagenic call [2]: active; positive | mutagenic call (Test System: AMES SALMONELLA TYPHIMURIUM, Strain/Indicator: TA100, Metabolic Activation: RAT, LIVER, S-9, AROCLOR 1254 (10%), Method: PREINCUBATION): inactive; negative | mutagenic call (Test System: AMES SALMONELLA TYPHIMURIUM, Strain/Indicator: TA100, Metabolic Activation: RAT, LIVER, S-9, AROCLOR 1254 (30%), Method: PREINCUBATION): inactive; negative | mutagenic call (Test System: AMES SALMONELLA TYPHIMURIUM, Strain/Indicator: TA100, Metabolic Activation: RAT, LIVER, S-9, AROCLOR 1254, Method: STANDARD PLATE): inactive; negative | mutagenic call (Test System: AMES SALMONELLA TYPHIMURIUM, Strain/Indicator: TA104, Metabolic Activation: NONE, Method: STANDARD PLATE): inactive; negative | mutagenic call (Test System: AMES SALMONELLA TYPHIMURIUM, Strain/Indicator: TA104, Metabolic Activation: RAT, LIVER, S-9, AROCLOR 1254, Method: STANDARD PLATE): active; positive | mutagenic call (Test System: AMES SALMONELLA TYPHIMURIUM, Strain/Indicator: TA1535, Metabolic Activation: HAMSTER, LIVER, S-9, AROCLOR 1254 (10%), Method: PREINCUBATION): inactive; negative | mutagenic call (Test System: AMES SALMONELLA TYPHIMURIUM, Strain/Indicator: TA1535, Metabolic Activation: HAMSTER, LIVER, S-9, AROCLOR 1254 (30%), Method: PREINCUBATION): inactive; negative | mutagenic call (Test System: AMES SALMONELLA TYPHIMURIUM, Strain/Indicator: TA1535, Metabolic Activation: NONE, Method: PREINCUBATION): inactive; negative | mutagenic call (Test System: AMES SALMONELLA TYPHIMURIUM, Strain/Indicator: TA1535, Metabolic Activation: RAT, LIVER, S-9, AROCLOR 1254 (10%), Method: PREINCUBATION): inactive; negative | mutagenic call (Test System: AMES SALMONELLA TYPHIMURIUM, Strain/Indicator: TA1535, Metabolic Activation: RAT, LIVER, S-9, AROCLOR 1254 (30%), Method: PREINCUBATION): inactive; negative | mutagenic call (Test System: AMES SALMONELLA TYPHIMURIUM, Strain/Indicator: TA1537, Metabolic Activation: HAMSTER, LIVER, S-9, AROCLOR 1254 (10%), Method: PREINCUBATION): inactive; negative | mutagenic call (Test System: AMES SALMONELLA TYPHIMURIUM, Strain/Indicator: TA1537, Metabolic Activation: HAMSTER, LIVER, S-9, AROCLOR 1254 (30%), Method: PREINCUBATION): inactive; negative | mutagenic call (Test System: AMES SALMONELLA TYPHIMURIUM, Strain/Indicator: TA1537, Metabolic Activation: NONE, Method: PREINCUBATION): inactive; negative | mutagenic call (Test System: AMES SALMONELLA TYPHIMURIUM, Strain/Indicator: TA1537, Metabolic Activation: RAT, LIVER, S-9, AROCLOR 1254 (10%), Method: PREINCUBATION): inactive; negative | mutagenic call (Test System: AMES SALMONELLA TYPHIMURIUM, Strain/Indicator: TA1537, Metabolic Activation: RAT, LIVER, S-9, AROCLOR 1254 (30%), Method: PREINCUBATION): inactive; negative

C=CCN(CC=C)CCN(CC=C)CC=C.[Cl-].[Cl-].[Pd+2]
mutagenic call (Test System: AMES SALMONELLA TYPHIMURIUM, Strain/Indicator: TA92, Metabolic Activation: NONE, Method: STANDARD PLATE): inactive; negative | mutagenic call [1]: inactive; negative | mutagenic call [2]: inactive; negative | mutagenic call (Test System: AMES SALMONELLA TYPHIMURIUM, Strain/Indicator: TA2410, Metabolic Activation: NONE, Method: STANDARD PLATE): inactive; negative | mutagenic call (Test System: E. COLI, Strain/Indicator: TM6, Metabolic Activation: NONE, Method: STANDARD PLATE): active; positive | mutagenic call (Test System: E. COLI, Strain/Indicator: TM9, Metabolic Activation: NONE, Method: STANDARD PLATE): active; positive
